Laboratory results published in ChEMBL document CHEMBL3046902, “New dihydropyridine derivatives: anti-inflammatory, analgesic and docking studies” (2013).

Experiments:
Type in all cases: functional
Rattus norvegicus [1] = assay: Anti-inflammatory activity in Rattus norvegicus Wistar (rat) assessed as inhibition of carrageenan-induced paw edema at 20 mg/kg administered 30 min prior to carrageenan challenge measured after 2 hr by plethysmographic analysis relative to untreated control
Rattus norvegicus [2] = assay: Anti-inflammatory activity in Rattus norvegicus Wistar (rat) assessed as inhibition of carrageenan-induced paw edema at 20 mg/kg administered 30 min prior to carrageenan challenge measured after 0.5 hr by plethysmographic analysis relative to untreated control
Rattus norvegicus [3] = assay: Anti-inflammatory activity in Rattus norvegicus Wistar (rat) assessed as inhibition of carrageenan-induced paw edema at 20 mg/kg administered 30 min prior to carrageenan challenge measured after 1 hr by plethysmographic analysis relative to untreated control
Rattus norvegicus [4] = assay: Anti-inflammatory activity in Rattus norvegicus Wistar (rat) assessed as inhibition of carrageenan-induced paw edema at 20 mg/kg administered 30 min prior to carrageenan challenge measured after 3 hr by plethysmographic analysis relative to untreated control
Rattus norvegicus [5] = species: Rattus norvegicus; assay: Analgesic activity in Rattus norvegicus Wistar (rat) assessed as tail flick latency time after 30 min by tail immersion test (reference value: 3.23 +/- 0.005 secs)
Rattus norvegicus [6] = species: Rattus norvegicus; assay: Analgesic activity in Rattus norvegicus Wistar (rat) assessed as tail flick latency time after 90 min by tail immersion test (reference value: 3.25 +/- 0.005 secs)
Rattus norvegicus [7] = species: Rattus norvegicus; assay: Analgesic activity in Rattus norvegicus Wistar (rat) assessed as tail flick latency time after 60 min by tail immersion test (reference value: 3.34 +/- 0.005 secs)

Compound	inhibition in vivo at 20 mg/kg (Rattus norvegicus [1]) [%]	inhibition in vivo at 20 mg/kg (Rattus norvegicus [2]) [%]	inhibition in vivo at 20 mg/kg (Rattus norvegicus [3]) [%]	inhibition in vivo at 20 mg/kg (Rattus norvegicus [4]) [%]	Time (Rattus norvegicus [5]) [s]	Time (Rattus norvegicus [6]) [s]	Time (Rattus norvegicus [7]) [s]
CCOC(=O)C1=C(C)NC(C)=C(C(=O)OCC)C1c1ccc(OCC(=O)Nc2ccc(C)cc2)cc1	62.2	43.9					
O=C(O)Cc1ccccc1Nc1c(Cl)cccc1Cl [DICLOFENAC SODIUM]	61.1	16.7	41	65.3			
CCOC(=O)C1=C(C)NC(C)=C(C(=O)OCC)C1c1ccc(OCC(=O)NNC(=O)CCC(=O)O)cc1					4.96	6.87	6.07
O=C([O-])Cc1ccccc1Nc1c(Cl)cccc1Cl.[K+] [DICLOFENAC POTASSIUM]					6.25	7.45	6.95
CCOC(=O)C1=C(C)NC(C)=C(C(=O)OCC)C1c1ccc(OCC(=O)n2nc(C)cc2C)cc1		13.7			4.76	6.78	5.93
CCOC(=O)C1=C(C)NC(C)=C(C(=O)OCC)C1c1ccc(OCC(=O)NNC(=O)c2sccc2Cl)cc1	57.2				4.34	6.45	5.67
CCOC(=O)C1=C(C)NC(C)=C(C(=O)OCC)C1c1ccc(OCC(=O)NN2C(=O)c3ccccc3C2=O)cc1					5.03	7.21	6.16
CCOC(=O)C1=C(C)NC(C)=C(C(=O)OCC)C1c1ccc(OCC(=O)NNC(=O)c2ccccc2)cc1	44.5	9.1			4.62	6.37	5.87
CCOC(=O)C1=C(C)NC(C)=C(C(=O)OCC)C1c1ccc(OCC(=O)Nc2nc3ccccc3s2)cc1	64.5	47.7			5.28		6.03
CCOC(=O)C1=C(C)NC(C)=C(C(=O)OCC)C1c1ccc(OCC(=O)NNC(=O)c2cccs2)cc1	62.2	44				7.02	6.23
CCOC(=O)C1=C(C)NC(C)=C(C(=O)OCC)C1c1ccc(OCC(=O)Nc2c(C)cccc2C)cc1	47.8	15.9					
CCOC(=O)C1=C(C)NC(C)=C(C(=O)OCC)C1c1ccc(OCC(=O)NNC(=O)c2ccsc2Cl)cc1		12.9			4.85	6.46	5.74
CCOC(=O)C1=C(C)NC(C)=C(C(=O)OCC)C1c1ccc(OCC(=O)NCc2ccccc2)cc1	8.9		16.1				
CCOC(=O)C1=C(C)NC(C)=C(C(=O)OCC)C1c1ccc(OCc2nnc(S)o2)cc1	61.7	42.4			4.97	6.97	6.07
